Experimental data taken from patent US9587266B2, “Mutant luciferases” (University of Massachusetts, priority 2011, dated 2017).
Values joined by “and” are separate entries in the source; they are usually repeats but may differ in a detail not shown here. Equal values may be shown once. Read-outs that look alike come from different tables or passages of the source.

Key:
[1] = target: T1, L286M mutant luciferase (Photinus pyralis, UniProt P08659, L286M); experiment: Titration assay with purified protein; assay type: biochemical; settings: for Km: 3 minutes post-substrate addition, read-out: Apparent Km
T1 construct: The full firefly (Photinus pyralis) luciferase gene was PCR amplified from pGL3 (Promega); GST (N, cleaved yes); made in house; host or cells: E. coli JM109
Procedure: (§1) The PCR product was cloned into the BamH1 and NotI sites of pGEX6P-1 for bacterial expression. Mutant proteins were created using the Quickchange site-directed mutagenesis kit (Stratagene). Saturating mutagenesis was performed using the used the degenerate codon NNK at sites predicted to impact or alter substrate biding including F247, T251, L286, S347, R337, R218, Q338, Y340, A313, and I351 using the degenerate codon NNK.
(§2) Luminescence assays in 96-well plates were initiated by adding 30 μL 2× substrate in 20 mM Tris pH 7.6, 0.1 mM EDTA, 8 mM MgSO4, 4 mM ATP, and 1 mM TCEP to 30 μL of 20 nM purified luciferase in 20 mM Tris pH 7.6, 0.1 mM EDTA, 1 mM TCEP and 0.4 mg/mL BSA.

[2] = target: T2, T251S mutant luciferase (Photinus pyralis, UniProt P08659, T251S); experiment: Titration assay with purified protein; assay type: biochemical; settings: for Km: 3 minutes post-substrate addition, read-out: Apparent Km
T2 construct: The full firefly (Photinus pyralis) luciferase gene was PCR amplified from pGL3 (Promega); GST (N, cleaved yes); made in house; host or cells: E. coli JM109
Procedure: as §1, §2

[3] = target: T3, R218K mutant luciferase (Photinus pyralis, UniProt P08659, R218K); assay type: biochemical; settings: for Apparent Vmax / Km: R218K luciferase, purified protein; for Km: 3 minutes post-substrate addition, read-out: Apparent Km
T3 construct: The full firefly (Photinus pyralis) luciferase gene was PCR amplified from pGL3 (Promega); GST (N, cleaved yes); made in house; host or cells: E. coli JM109
Procedure: as §1, §2

[4] = target: T4, S347A mutant luciferase (Photinus pyralis, UniProt P08659, S347A); assay type: biochemical; settings: purified protein; for Km: 3 minutes post-substrate addition, read-out: Apparent Km
T4 construct: The full firefly (Photinus pyralis) luciferase gene was PCR amplified from pGL3 (Promega); GST (N, cleaved yes); made in house; host or cells: E. coli JM109
Procedure: as §1, §2

[5] = target: T5, WT luciferase (Photinus pyralis, UniProt P08659); experiment: Titration assay with purified protein; assay type: biochemical; settings: for Km: 3 minutes post-substrate addition, read-out: Apparent Km
T5 construct: The full firefly (Photinus pyralis) luciferase gene was PCR amplified from pGL3 (Promega); GST (N, cleaved yes); made in house; host or cells: E. coli JM109
Procedure: as §1, with “NNK. The point mutants S347A, L286A, A348G, E311A, I351A, A313G, R337A, H245A and L342A were made independently.” for “NNK.”
as §2, with “BSA. Titration assays were performed 3 minutes post-substrate addition in a Turner Veritas luminometer with final substrate concentrations ranging from 0.122-250 μM or 0.244-500 μM.” for “BSA.”

[6] = target: T6, R218K + L342A luciferase (Photinus pyralis, UniProt P08659, L342A/R218K); assay type: biochemical
T6 construct: The full firefly (Photinus pyralis) luciferase gene was PCR amplified from pGL3 (Promega); GST (N, cleaved yes); made in house; host or cells: E. coli JM109
Procedure: (§3) Purified mutant luciferases were used in bioluminescence emission and burst kinetics scans. Each purified protein in 20 mM Tris pH 7.6, 0.1 mM EDTA, 1 mM TCEP and 0.4 mg/mL BSA was added to 2× substrate in 20 mM Tris pH 7.6, 0.1 mM EDTA, 8 mM MgSO4, 4 mM ATP, and 1 mM TCEP in a cuvette.
(§4) Luciferase was rapidly injected into a cuvette containing substrate, and the emission from 400-800 nm was recorded in a SPEX FluoroMax-3 fluorimeter with closed excitation slits.

[7] = target: T5, WT luciferase; assay type: biochemical; settings: for Maximum Emission Wavelength of Selected Substrate: Table 3
Procedure: as §3, §4

[8] = target: T7, L286M + S347A luciferase (Photinus pyralis, UniProt P08659, L286M/S347A); experiment: Bioluminescence emission scan; assay type: biochemical
T7 construct: The full firefly (Photinus pyralis) luciferase gene was PCR amplified from pGL3 (Promega); GST (N, cleaved yes); made in house; host or cells: E. coli JM109
Procedure: (§5) Purified mutant luciferases were used in bioluminescence emission and burst kinetics scans.
as §4

[9] = target: T8, L342A luciferase (Photinus pyralis, UniProt P08659, L342A); experiment: Bioluminescence emission scan; assay type: biochemical
T8 construct: The full firefly (Photinus pyralis) luciferase gene was PCR amplified from pGL3 (Promega); GST (N, cleaved yes); made in house; host or cells: E. coli JM109
Procedure: as §5, §4

[10] = target: T9, R218K luciferase (Photinus pyralis, UniProt P08659, R218K); experiment: Bioluminescence emission scan; assay type: biochemical
T9 construct: The full firefly (Photinus pyralis) luciferase gene was PCR amplified from pGL3 (Promega); GST (N, cleaved yes); made in house; host or cells: E. coli JM109
Procedure: as §5, §4

[11] = target: T10, F247V luciferase (Photinus pyralis, UniProt P08659, F247V); experiment: Bioluminescence emission scan; assay type: biochemical
T10 construct: The full firefly (Photinus pyralis) luciferase gene was PCR amplified from pGL3 (Promega); GST (N, cleaved yes); made in house; host or cells: E. coli JM109
Procedure: as §5, §4

[12] = target: T11, L286M luciferase (Photinus pyralis, UniProt P08659, L286M); experiment: Bioluminescence emission scan; assay type: biochemical
T11 construct: The full firefly (Photinus pyralis) luciferase gene was PCR amplified from pGL3 (Promega); GST (N, cleaved yes); made in house; host or cells: E. coli JM109
Procedure: as §5, §4

[13] = tested on: Nc1ccc2nc(C3=N[C@@H](C(=O)O)CS3)sc2c1; experiment: purified protein, by the assay type; settings: 3 minutes post-substrate addition, pH 7.6

T6 sequence (P08659 whole entry R218K/L342A): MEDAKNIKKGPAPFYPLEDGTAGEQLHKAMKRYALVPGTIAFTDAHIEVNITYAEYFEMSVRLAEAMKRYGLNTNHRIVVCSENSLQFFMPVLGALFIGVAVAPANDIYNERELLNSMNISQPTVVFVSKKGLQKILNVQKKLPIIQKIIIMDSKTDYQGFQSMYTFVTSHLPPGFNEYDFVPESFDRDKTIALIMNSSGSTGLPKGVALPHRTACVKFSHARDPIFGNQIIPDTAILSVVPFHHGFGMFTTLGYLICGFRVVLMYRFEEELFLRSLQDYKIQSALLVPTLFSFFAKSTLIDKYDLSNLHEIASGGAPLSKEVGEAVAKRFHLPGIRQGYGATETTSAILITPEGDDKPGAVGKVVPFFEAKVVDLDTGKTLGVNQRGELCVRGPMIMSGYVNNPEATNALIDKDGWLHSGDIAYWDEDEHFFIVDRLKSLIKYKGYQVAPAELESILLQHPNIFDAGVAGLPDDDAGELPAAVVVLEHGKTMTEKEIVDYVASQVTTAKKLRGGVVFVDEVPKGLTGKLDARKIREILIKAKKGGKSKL
T4 sequence (P08659 whole entry S347A): as the sequence (P08659 whole entry R218K/L342A) above, with K218R, A342L, S347A counted along it
T5 sequence (P08659 whole entry): as the sequence (P08659 whole entry R218K/L342A) above, with K218R, A342L counted along it
T8 sequence (P08659 whole entry L342A): as the sequence (P08659 whole entry R218K/L342A) above, with K218R counted along it
T7 sequence (P08659 whole entry L286M/S347A): as the sequence (P08659 whole entry R218K/L342A) above, with K218R, L286M, A342L, S347A counted along it
T1 sequence (P08659 whole entry L286M): as the sequence (P08659 whole entry R218K/L342A) above, with K218R, L286M, A342L counted along it
T2 sequence (P08659 whole entry T251S): as the sequence (P08659 whole entry R218K/L342A) above, with K218R, T251S, A342L counted along it
T3 sequence (P08659 whole entry R218K): as the sequence (P08659 whole entry R218K/L342A) above, with A342L counted along it
T9 sequence (P08659 whole entry R218K): as the sequence (P08659 whole entry R218K/L342A) above, with A342L counted along it
T11 sequence (P08659 whole entry L286M): as the sequence (P08659 whole entry R218K/L342A) above, with K218R, L286M, A342L counted along it
T10 sequence (P08659 whole entry F247V): as the sequence (P08659 whole entry R218K/L342A) above, with K218R, F247V, A342L counted along it

Molecule | Maximum Emission Wavelength of Selected Substrate [6] [nm] | Maximum Emission Wavelength of Selected Substrate [7] [nm] | Maximum Emission Wavelength of Selected Substrate [8] [nm] | Maximum Emission Wavelength of Selected Substrate [9] [nm] | Maximum Emission Wavelength of Selected Substrate [10] [nm] | further results
CN(C)c1ccc2nc(C3=NC(C(=O)O)CS3)sc2c1 (stereo not shown) [6′-Me2NLH2] | 628 | 619 | 608 | 619 | 624 | Apparent Vmax [1]: 1.3 ± 0.01 ×10^−5 cps; Km [1]: 80 ± 5 nM; Apparent Vmax [2]: 1.6 ± 0.02 ×10^−5 cps; Km [2]: 300 ± 20 nM; Apparent Vmax [3]: 5 ± 0.1 ×10^−5 cps; Km [3]: 350 ± 40 nM; Apparent Vmax [4]: 2.1 ± 0.02 ×10^−5 cps; Km [4]: 240 ± 14 nM; Apparent Vmax [5]: 0.5 ± 0.003 ×10^−5 cps; Km [5]: 25 ± 3 nM
CNc1ccc2nc(C3=NC(C(=O)O)CS3)sc2c1 (stereo not shown) [6′-MeNHLH2, Monomethylaminoluciferin] | 612 | 608 | 599 | 611 | 610 | Apparent Vmax [1]: 7 ± 0.05 ×10^−5 cps; Km [1]: 80 ± 5 nM; Apparent Vmax [2]: 8 ± 0.1 ×10^−5 cps; Km [2]: 270 ± 20 nM; Apparent Vmax [3]: 38 ± 0.5 ×10^−5 cps; Km [3]: 450 ± 40 nM; Apparent Vmax [4]: 16 ± 0.2 ×10^−5 cps; Km [4]: 470 ± 30 nM; Apparent Vmax [5]: 3 ± 0.02 ×10^−5 cps; Km [5]: 60 ± 4 nM
CN1CCc2cc3nc(C4=N[C@@H](C(=O)O)CS4)sc3cc21 [CycLuc2] | 617 | 609 | 608 | 611 | 621 | Apparent Vmax [1]: 2.3 ± 0.02 ×10^−5 cps; Km [1]: 100 ± 10 nM; Apparent Vmax [2]: 4.8 ± 0.1 ×10^−5 cps; Km [2]: 130 ± 20 nM; Apparent Vmax [3]: 26 ± 0.3 ×10^−5 cps; Km [3]: 300 nM and 270 nM; improvement in the maximal sustained emission ([3]; R218K mutant relative to wild-type luciferase): 20 fold; Apparent Vmax [4]: 7.6 ± 0.05 ×10^−5 cps; Km [4]: 110 ± 5 nM; Apparent Vmax [5]: 1.3 ± 0.02 ×10^−5 cps; Maximum Emission Wavelength of Selected Substrate ([10]; listed as Cyc2): 619 nm
O=C(O)C1CSC(c2nc3cc4c(cc3s2)NCCO4)=N1 (stereo not shown) [CycLuc3, 2-(7,8-Dihydro-6H-5-oxa-1-thia-3,8-diaza-cyclopenta[b]naphthalen-2-yl)-4,5-dihydro-thiazole-4-carboxylic acid] | 606 | 599 | 590 | 599 | 605 | Wavelength at Max. Emission ([7]; Table 2): 594 nm; Wavelength at Max. Emission [11]: 599 nm; Wavelength at Max. Emission [12]: 592 nm
CN1CCOc2cc3nc(C4=NC(C(=O)O)CS4)sc3cc21 (stereo not shown) [CycLuc4, 2-(8-Methyl-7,8-dihydro-6H-5-oxa-1-thia-3,8-diaza-cyclopenta[b]naphthalen-2-yl)-4,5-dihydro-thiazole-4-carboxylic acid] | 616 | 607 | 602 | 608 | 617 | 
CC1=CC(C)(C)Nc2cc3sc(C4=NC(C(=O)O)CS4)nc3cc21 (stereo not shown) [CycLuc5, 2-(6,6,8-Trimethyl-5,6-dihydro-thiazolo[4,5-g]quinolin-2-yl)-4,5-dihydro-thiazole-4-carboxylic acid] | 633 | 637 | 631 | 631 | 635 | 
CC1=CC(C)(C)N(C)c2cc3sc(C4=NC(C(=O)O)CS4)nc3cc21 (stereo not shown) [CycLuc6, 2-(5,6,6,8-Tetramethyl-5,6-dihydro-thiazolo[4,5-g]quinolin-2-yl)-4,5-dihydro-thiazole-4-carboxylic acid] | 635 | 636 | 628 | 639 | 637 | 
O=C(O)C1CSC(c2nc3cc4c(cc3s2)NCCC4)=N1 (stereo not shown) [CycLuc7, 2-(5,6,7,8-Tetrahydro-thiazolo[4,5-g]quinolin-2-yl)-4,5-dihydro-thiazole-4-carboxylic acid] | 616 | 607 | 604 | 611 | 620 | 
CN1CCCc2cc3nc(C4=NC(C(=O)O)CS4)sc3cc21 (stereo not shown) [CycLuc8, 2-(5-Methyl-5,6,7,8-tetrahydro-thiazolo[4,5-g]quinolin-2-yl)-4,5-dihydro-thiazole-4-carboxylic acid] | 628 | 610 | 605 | 614 | 632 | 
CCCO [Propanol] | 609 | 608 | 593 | 607 | 609 | 
L286M mutant luciferase (Photinus pyralis; L286M) |  |  |  |  |  | Km ([13]; other: L286M luciferase): 4.35 ± 0.2 µM
R218K mutant luciferase (Photinus pyralis; R218K) |  |  |  |  |  | Km ([13]; other: R218K luciferase): 15.2 ± 1.1 µM
S347A mutant luciferase (Photinus pyralis; S347A) |  |  |  |  |  | Km ([13]; other: S347A luciferase): 31.0 ± 0.4 µM
T251S mutant luciferase (Photinus pyralis; T251S) |  |  |  |  |  | Km ([13]; other: T251S luciferase): 17.3 ± 0.3 µM
